Converted amounts (≈) assume the structure as drawn. The source made the active and inactive calls. The rule behind the calls is not given here.
Legend:
[1] = Cytotoxicity against human HUVEC cells incubated for 48 hrs by CCK-8 method; assay type: toxicity, cell-based
[2] = Hemolytic activity in mouse RBC assessed as hemolysis at 2 to 32 ug/ml incubated for 60 mins by absorbance based analysis relative to control; assay type: toxicity, cell-based, Erythrocyte; conditions: mouse red blood cells, at 2 to 32 µg/mL, dose 2-32 µg/ml, read-out: Activity
Candida albicans [3] = assay: Antifungal activity against Candida albicans SC5314 assessed as inhibition of hyphae growth incubated for 24 hrs by CLSI protocol based broth microdilution method; assay type: functional
Candida albicans [4] = assay: Antifungal activity against Candida albicans SC5314 assessed as inhibition of fungal growth incubated for 24 hrs by CLSI protocol based broth microdilution method; assay type: functional
[5] = Cytotoxicity against human BEAS-2B cells incubated for 48 hrs by CCK-8 method; assay type: toxicity, cell-based
Candida albicans [6] = assay: Antifungal activity against Candida albicans SN152 assessed as inhibition of fungal growth incubated for 24 hrs by CLSI protocol based broth microdilution method; assay type: functional
Candida albicans [7] = assay: Antifungal activity against Candida albicans erg6delta/delta assessed as inhibition of fungal growth incubated for 24 hrs by CLSI protocol based broth microdilution method; assay type: functional
Candida albicans [8] = assay: Synergistic antifungal activity against Candida albicans SC5314 assessed as inhibition of fungal growth incubated for 24 hrs in presence of (Z)-1,5-dimethyl-4-(4-(naphthalen-2-yl)-2-(phenylimino)thiazol-3(2H)-yl)-2-phenyl-1,2-dihydro-3H-pyrazol-3-one by broth microdilution checkerboard assay; assay type: functional
Candida albicans [9] = assay: Synergistic antifungal activity against Candida albicans SC5314 assessed as inhibition of fungal growth incubated for 24 hrs in presence of (Z)-4-(4-(4-bromophenyl)-2-(phenylimino)thiazol-3(2H)-yl)-1,5-dimethyl-2-phenyl-1,2-dihydro-3H-pyrazol-3-one by broth microdilution checkerboard assay; assay type: functional
Candida albicans [10] = assay: Synergistic antifungal activity against Candida albicans SC5314 assessed as fractional inhibitory concentration index incubated for 24 hrs in presence of terbinafine by broth microdilution checkerboard assay; assay type: functional
Candida albicans [11] = assay: Synergistic antifungal activity against Candida albicans SC5314 assessed as inhibition of fungal growth incubated for 24 hrs in presence of terbinafine by broth microdilution checkerboard assay; assay type: functional
[12] = target: T1, Sterol 24-C-methyltransferase (Candida albicans (strain SC5314 / ATCC MYA-2876) (Yeast), UniProt O74198); assay: Inhibition of recombinant Candida albicans SC5314 Erg6 methyltransferase activity using zymosterol as substrate incubated for 15 mins followed by substrate addition by liquid scintillation counter analysis
T1 sequence (O74198 whole entry): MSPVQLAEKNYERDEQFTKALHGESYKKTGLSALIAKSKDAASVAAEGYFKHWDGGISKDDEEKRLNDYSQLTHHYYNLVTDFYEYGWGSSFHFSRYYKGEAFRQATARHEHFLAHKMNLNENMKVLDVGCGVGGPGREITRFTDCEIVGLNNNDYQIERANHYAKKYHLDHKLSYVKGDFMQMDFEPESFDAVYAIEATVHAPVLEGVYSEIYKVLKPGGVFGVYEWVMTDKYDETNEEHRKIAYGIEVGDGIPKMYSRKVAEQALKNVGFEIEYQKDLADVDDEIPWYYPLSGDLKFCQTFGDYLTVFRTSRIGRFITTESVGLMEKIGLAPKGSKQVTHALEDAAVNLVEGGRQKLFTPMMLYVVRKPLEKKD

Candida albicans [13] = assay: Synergistic antifungal activity against Candida albicans SC5314 assessed as fractional inhibitory concentration index incubated for 24 hrs in presence of tridemorph by broth microdilution checkerboard assay; assay type: functional
Candida albicans [14] = assay: Synergistic antifungal activity against Candida albicans SC5314 assessed as inhibition of fungal growth incubated for 24 hrs in presence of tridemorph by broth microdilution checkerboard assay; assay type: functional
Candida albicans [15] = assay: Antifungal activity against Candida albicans SC5314 assessed as inhibition of hyphae growth measured after 30 passages; assay type: functional, organism-based

Structure (SMILES)	MIC50 (Candida albicans [3])	MIC80 (Candida albicans [4])	further results
Cc1c(-n2c(-c3ccc(N(C)C)cc3)cs/c2=N\c2ccccc2)c(=O)n(-c2ccccc2)n1C	2 µg/mL (≈ 4.15 µM)	> 128 µg/mL	EC50 at 48 h [1]: > 50 µg/mL; hemolysis at 1 h [2]: < 1%; EC50 at 48 h [5]: > 50 µg/mL
Cc1c(-n2c(-c3ccc(Br)cc3)cs/c2=N\c2ccc3ccccc3c2)c(=O)n(-c2ccccc2)n1C	1 µg/mL (≈ 1.76 µM)	> 128 µg/mL	EC50 at 48 h [1]: > 50 µg/mL; hemolysis at 1 h [2]: < 1%; EC50 at 48 h [5]: > 50 µg/mL
Cc1c(-n2c(-c3ccc4ccccc4c3)cs/c2=N\c2ccc(C(F)(F)F)cc2)c(=O)n(-c2ccccc2)n1C	2 µg/mL (≈ 3.59 µM)	> 128 µg/mL	EC50 at 48 h [1]: > 50 µg/mL; hemolysis at 1 h [2]: < 1%; EC50 at 48 h [5]: > 50 µg/mL
Cc1c(-n2c(-c3ccc4ccccc4c3)cs/c2=N\c2cccc3ccccc23)c(=O)n(-c2ccccc2)n1C	0.5 µg/mL (≈ 0.928 µM)	> 128 µg/mL	EC50 at 48 h [1]: > 50 µg/mL; hemolysis at 1 h [2]: < 1%; EC50 at 48 h [5]: > 50 µg/mL
Cc1c(-n2c(-c3ccc(Br)cc3)cs/c2=N\c2ccc(Br)cc2)c(=O)n(-c2ccccc2)n1C	1 µg/mL (≈ 1.68 µM)	> 128 µg/mL	EC50 at 48 h [1]: > 50 µg/mL; hemolysis at 1 h [2]: < 1%; EC50 at 48 h [5]: > 50 µg/mL
CN(C/C=C/C#CC(C)(C)C)Cc1cccc2ccccc12 [TERBINAFINE]	–	32 µg/mL (≈ 110 µM)	MIC80 (Candida albicans [6]): 32 µg/mL (≈ 110 µM); MIC80 (Candida albicans [7]): 0.5 µg/mL (≈ 1.72 µM); MIC80 (Candida albicans [8]): 0.008 µg/mL; MIC80 (Candida albicans [9]): 0.5 µg/mL
Cc1c(-n2c(-c3ccc(S(C)(=O)=O)cc3)cs/c2=N\c2ccccc2)c(=O)n(-c2ccccc2)n1C	> 128 µg/mL	> 128 µg/mL	–
Cc1c(-n2c(-c3ccc4ccccc4c3)cs/c2=N\c2cccnc2)c(=O)n(-c2ccccc2)n1C	32 µg/mL (≈ 65.4 µM)	> 128 µg/mL	–
Cc1c(-n2c(-c3ccccn3)cs/c2=N\c2ccc(Br)cc2)c(=O)n(-c2ccccc2)n1C	> 128 µg/mL	> 128 µg/mL	–
Cc1c(-n2c(-c3cccc(N)c3)cs/c2=N\c2ccccc2)c(=O)n(-c2ccccc2)n1C	> 128 µg/mL	> 128 µg/mL	–
Cc1c(-n2c(-c3ccc4ccc5cccc6ccc3c4c56)cs/c2=N\c2ccccc2)c(=O)n(-c2ccccc2)n1C	> 128 µg/mL	> 128 µg/mL	–
Cc1c(-n2c(-c3cc4ccccc4o3)cs/c2=N\c2ccccc2)c(=O)n(-c2ccccc2)n1C	2 µg/mL (≈ 4.18 µM)	> 128 µg/mL	–
Cc1c(-[n+]2c(-c3ccc(Br)cc3)csc2N(C)c2ccccc2)c(=O)n(-c2ccccc2)n1C.[I-]	> 128 µg/mL	> 128 µg/mL	–
Cc1c(-n2c(-c3nccs3)cs/c2=N\c2ccccc2)c(=O)n(-c2ccccc2)n1C	> 128 µg/mL	> 128 µg/mL	–
Cc1c(-n2c(-c3cccc([N+](=O)[O-])c3)cs/c2=N\c2ccccc2)c(=O)n(-c2ccccc2)n1C	> 128 µg/mL	> 128 µg/mL	–
Cc1c(-n2c(-c3ccc(I)cc3)cs/c2=N\c2ccccc2)c(=O)n(-c2ccccc2)n1C	> 128 µg/mL	> 128 µg/mL	–
Cc1c(-n2c(-c3ccc4ccccc4c3)cs/c2=N\c2ccc(Br)cc2)c(=O)n(-c2ccccc2)n1C	2 µg/mL (≈ 3.52 µM)	> 128 µg/mL	EC50 at 48 h [1]: > 50 µg/mL; hemolysis at 1 h [2]: < 1%; EC50 at 48 h [5]: > 50 µg/mL
CCCCCCCCCCCCCN1CC(C)OC(C)C1 (stereo not drawn) [TRIDEMORPH]	–	> 128 µg/mL	MIC80 (Candida albicans [6]): > 128 µg/mL; MIC80 (Candida albicans [7]): 0.008 µg/mL (≈ 0.0269 µM); MIC80 (Candida albicans [8]): 0.008 µg/mL; MIC80 (Candida albicans [9]): 0.5 µg/mL

Structure (SMILES)	MIC50 (Candida albicans [3])	MIC80 (Candida albicans [4])	further results
Cc1c(-n2c(-c3cccc([N+](=O)[O-])c3)cs/c2=N\c2ccc(Br)cc2)c(=O)n(-c2ccccc2)n1C	> 128 µg/mL	> 128 µg/mL	–
Cc1c(-n2c(-c3ccc(C#N)cc3)cs/c2=N\c2ccc(Br)cc2)c(=O)n(-c2ccccc2)n1C	> 128 µg/mL	> 128 µg/mL	–
Cc1c(-n2c(-c3ccccc3)cs/c2=N\c2ccccc2)c(=O)n(-c2ccccc2)n1C	> 128 µg/mL	> 128 µg/mL	–
Cc1c(-n2c(-c3ccc(F)cc3)cs/c2=N\c2ccccc2)c(=O)n(-c2ccccc2)n1C	> 128 µg/mL	> 128 µg/mL	–
Cc1c(-n2c(C3CC3)cs/c2=N\c2ccccc2)c(=O)n(-c2ccccc2)n1C	> 128 µg/mL	> 128 µg/mL	–
Cc1c(-n2c(-c3ccc(O)c(C=O)c3)cs/c2=N\c2ccccc2)c(=O)n(-c2ccccc2)n1C	> 128 µg/mL	> 128 µg/mL	–
Cc1c(-n2c(-c3ccc(O)c(C=O)c3)cs/c2=N\c2ccc(Br)cc2)c(=O)n(-c2ccccc2)n1C	> 128 µg/mL	> 128 µg/mL	–
Cc1c(-n2c(-c3ccc(Br)cc3)cs/c2=N\c2cccnc2)c(=O)n(-c2ccccc2)n1C	> 128 µg/mL	> 128 µg/mL	–
COc1ccc(-c2cs/c(=N\c3ccccc3)n2-c2c(C)n(C)n(-c3ccccc3)c2=O)cc1	> 128 µg/mL	> 128 µg/mL	–
Cc1c(-n2c(-c3cccnc3)cs/c2=N\c2ccccc2)c(=O)n(-c2ccccc2)n1C	> 128 µg/mL	> 128 µg/mL	–
Cc1c(-n2c(-c3ccncc3)cs/c2=N\c2ccc(Br)cc2)c(=O)n(-c2ccccc2)n1C	> 128 µg/mL	> 128 µg/mL	–
Cc1c(-n2c(-c3ccc4ccccc4c3)cs/c2=N\c2ccc3ccccc3c2)c(=O)n(-c2ccccc2)n1C	0.5 µg/mL (≈ 0.928 µM)	> 128 µg/mL	EC50 at 48 h [1]: > 50 µg/mL; hemolysis at 1 h [2]: < 1%; EC50 at 48 h [5]: > 50 µg/mL
Cc1c(-n2c(-c3cccs3)cs/c2=N\c2ccccc2)c(=O)n(-c2ccccc2)n1C	> 128 µg/mL	> 128 µg/mL	–
Cc1c(-n2c(-c3ccc(C(F)(F)F)cc3)cs/c2=N\c2ccc(Br)cc2)c(=O)n(-c2ccccc2)n1C	> 128 µg/mL	> 128 µg/mL	–
Cc1c(-n2c(-c3ccc(F)cc3)cs/c2=N\c2ccc(Br)cc2)c(=O)n(-c2ccccc2)n1C	> 128 µg/mL	> 128 µg/mL	–
COc1ccc(/N=c2\scc(-c3ccc(Br)cc3)n2-c2c(C)n(C)n(-c3ccccc3)c2=O)cc1	16 µg/mL (≈ 29.2 µM)	> 128 µg/mL	–
Cc1c(-n2c(-c3ccc(Br)cc3)cs/c2=N\c2ccccc2)c(=O)n(-c2ccccc2)n1C	2 µg/mL (≈ 3.87 µM)	> 128 µg/mL	EC50 at 48 h [1]: > 50 µg/mL; hemolysis at 1 h [2]: < 1%; fractional inhibitory concentration index (FICI) (Candida albicans [10]): <0.1; MIC80 (Candida albicans [11]): 8 µg/mL; IC50 [12]: 1.01 µM; fractional inhibitory concentration index (FICI) (Candida albicans [13]): <0.1; MIC80 (Candida albicans [14]): 8 µg/mL; EC50 at 48 h [5]: > 50 µg/mL; Activity (Candida albicans [15]): Active
Cc1c(-n2c(-c3ccc4ccccc4c3)cs/c2=N\c2cccc(OCc3ccccc3)c2)c(=O)n(-c2ccccc2)n1C	> 128 µg/mL	> 128 µg/mL	–
